The numbers were not newly measured in US20240016731A1, “Drug Implants Containing Apalutamide and Methods of Use Thereof” (The Regents of the University of California, priority 2020, published 2024), which cites them from elsewhere.

For the data set the following is noted: systemic (e.g., oral) administration, assuming 240 mg daily dose.

Take `CNC(=O)c1ccc(N2C(=S)N(c3cnc(C#N)c(C(F)(F)F)c3)C(=O)C23CCC3)cc1F` [apalutamide, Apalutamide]: the “steady state blood plasma concentration of apalutamide” value is on record as “about 6 μg/ml”.
